According to US8900444B2, “Switchable hydrophilicity solvents and methods of use thereof” (Queen's University at Kingston, priority 2009, dated 2014):

What was measured:
Format in all cases: physicochemical
[1] = Water miscibility of amidines in neutral form and after CO2
Source text: This represents relatively hydrophilic character. The amidines A-D are unsatisfactory for use as a switchable hydrophilicity solvent because they are insufficiently hydrophobic in their amidine form. […] Since such amidines are not separable from water after switching from their hydrophilic to hydrophobic forms, they are unsuitable for use in the present invention.
Exposure of a 1:1 by volume mixture of two immiscible liquids, hydrophobic PA and water, to gaseous CO2, at 1 atmosphere, caused a conversion to a hydrophilic liquid comprising an aqueous solution of N,N,N′-tripropylbutyramidinium bicarbonate (PAB) (see FIG. 1 for the chemical scheme in which R^1-4 are propyl). NMR data for the PA/water system is presented in FIGS. 4 and 5 and IR data in FIG. 6. FIGS. 4A and 5A show ^1H and ^13C NMR data for PA. After switching, the detection of the N,N,N′-tripropylbutyramidinium bicarbonate salt was confirmed by ^1H and ^13C NMR as shown in FIGS. 4B and 5B.
Similarly, exposure of a 1:1 by volume mixture of two immiscible liquids, hydrophobic BA and water, to gaseous CO2, at 1 atmosphere, caused a conversion to a hydrophilic liquid comprising an aqueous solution of N,N,N′-tributylpentanamidinium bicarbonate (BAB) (see FIG. 1 for the chemical scheme in which R^1-4 are butyl). NMR data for the […] is presented in FIGS. 7 and 8 and IR data in FIG. 9. […] show ^1H and ^13C NMR data for BA. After switching, the detection of the N,N,N′-tributylpentanamidinium bicarbonate salt was confirmed by ^1H and ^13C NMR as shown in FIGS. 6B and 7B. The hydrophilic aqueous solution of BAB was converted back into hydrophobic BA and water by heating at 80° C.

[2] = Qualitative switchability assessment of BA (Example 1B)
Source text: The BA amidine's ability to act as a switchable hydrophilicity solvent for the separation of a selected substance is dependent on its ability to switch from the hydrophobic form to a hydrophilic form. This is achieved by adding water to provide an aqueous layer and decreasing the pH of the aqueous layer, namely by dissolving CO2 in the aqueous layer. When carbon dioxide dissolves in water, it forms carbonic acid with pKa1 of 6.4. The resultant dissociation is sufficient to protonate a hydrophobic amidine, causing it to become charged forming a hydrophilic amidinium bicarbonate (BAB). In this preliminary switching study, the amidine's ability to act as a base and its ability to switch hydrophilicity were studied.
Switching behavior was studied for BA over various periods of time. A glass vial (4 mL) was prepared, containing distilled water (1.0 mL) and BA amidine (0.5 mL).
CO2 was bubbled through the vial for roughly 30 minutes, until the top layer had disappeared showing that a hydrophilic solution of BAB in water had been formed.
A magnetic stirrer was placed in the vial. The vial was suspended in an 80° C. oil bath and stirred. The vial was intermittently removed from the bath and monitored for the presence of a second layer after 20, 50 and 75 minutes. The formation of a second layer (hydrophobic BA) was noted after 20 minutes in the oil bath.

[3] = Regeneration of BA from aqueous BAB using air (Example 1C)
Experimental: Switching behavior was studied for an aqueous solution of BAB. A glass vial (4 mL) was prepared, containing distilled water (1.0 mL) and BA (1.0 mL) as a two-phase mixture. CO2 was bubbled through the vial for roughly 30 minutes, until the top layer had disappeared showing that a single-phase solution of BAB in water had been formed.
Air was then bubbled through the same glass vial with the single-phase solution for approximately 5 hours at room temperature to displace CO2 from the solution. The formation of a second layer (hydrophobic BA) was noted.

[4] = Quantitative switching study of BA by 1H NMR (Example 1D)
Experimental: A methanol-d4 solution was prepared containing a sodium acetate internal standard (48.8 mM).
Two 4 mL glass vials containing 1.0 mL D2O and 0.5 mL BA were prepared and shaken. A 50 μL sample was withdrawn from each layer of one vial and combined with 0.50 mL of the sodium acetate standard solution in each of two NMR tubes: the top layer (BA) in a first tube; the bottom layer (aqueous) in a second tube.
Carbon dioxide was bubbled through the unsampled vial until the BA had completely converted to BAB, as evidenced by the disappearance of the top layer. The pH of the solution was measured using pH paper to be approximately 8-9. A 50 μL sample was withdrawn from the BAB/D2O solution and added to 0.50 mL of the sodium acetate standard solution in a third NMR tube.
The 4.0 mL vial from which the last NMR sample was withdrawn was then heated at 80° C. for 1 h and stirred by a magnetic stirrer. Bubbles of CO2 were observed escaping from the solution and a top layer, hydrophobic amidine, appeared. After cooling the vial to room temperature, a 50 μL sample was withdrawn from each layer and combined with 0.50 mL of the sodium acetate standard in two NMR tubes: the top layer (BA) in a fourth tube; the bottom layer (aqueous) in a fifth tube.
The NMR spectra of all five samples are shown in FIG. 10 with the first to fifth tubes shown from top to bottom. […] In addition, using the ‘c’ and ‘d’ protons provided stronger signals, to improve accuracy. Based on the strength of the ‘c’ and ‘d’ signals, 11% of the BA remained in the aqueous phase as BAB after the experiment
Using dioxane as the internal standard gave the same results (11% BAB retention in the aqueous phase) as sodium acetate.
The same experiment was repeated except that the temperature of the heating of the 4.0 mL vial was increased from 80° C. to 90° C. A similar retention of BAB in the aqueous phase (12%) was observed.

SMILES: CCCCN=C(CCCC)N(CCCC)CCCC [BA, N,N,N′-tributylpentanamidine]
- miscibility with water after CO2 trigger (amidinium bicarbonate form) ([1]; CO2 and water): became miscible
- miscibility with water, neutral (unprotonated) amidine form ([1]; no CO2): immiscible with water
- time of CO2 bubbling until top layer disappeared ([2]; 1.0 mL water + 0.5 mL BA): roughly 30 minutes
- heating time to formation of second (hydrophobic) layer ([2]; 80 °C oil bath, stirred): 20 min
- time of CO2 bubbling until top layer disappeared ([3]; 1.0 mL water + 1.0 mL BA): roughly 30 minutes
- time of air bubbling after which second layer was noted ([3]; room temperature): approximately 5 hours
- BA remaining in the aqueous phase as BAB after heating ([4]; 80 °C, 1 h, sodium acetate internal standard): 11%
- BA recovered when amidinium bicarbonate solution is heated ([4]; from 1H NMR peak integrations): 89%
